Like-named read-outs stand apart in the source and are kept apart here.
Test system: MRSA COL (MB5393)
Assay: TarO Inhibitor/β-Lactam Synergy Assay
Type: cell-based, Staphylococcus aureus
Conditions: 20 hours; for IC95: TarO inhibitor alone, OD600, 95% growth inhibition, read-out: MITC95 TarO inhibitor alone, Bacteria: SA_MB5393; for MITC95 TarO inhibitor + 4 μg/mL IPM; Bacteria: SA_MB5393: in combination with 4 μg/mL imipenem; for MITC95 TarO inhibitor + 4 μg/mL IPM; Bacteria: SA_MB5393 / MITC95 TarO inhibitor + 8 μg/mL DCX; Bacteria: SA_MB5393: OD600; for MITC95 TarO inhibitor + 8 μg/mL DCX; Bacteria: SA_MB5393: in combination with 8 μg/mL dicloxacillin
Description: The TarO inhibitor/β-lactam synergy assay was performed to measure the re-sensitization of methicillin-resistant Staphylococci bacteria (MB5393: MRSA COL) to β-lactam antibiotics by TarO inhibitors. MRSA COL is a hospital-acquired penicillinase-negative clinically isolated strain commonly used in Staphylococcus aureus studies and is fully resistant to the antimicrobial bioactivity of β-lactam antibiotics, including but not limited to imipenem and dicloxacillin. […] MRSA COL is fully refractory to β-lactam antibiotic effect at the current clinical breakpoint concentrations and as such MRSA COL is fully viable at these concentrations.
The β-lactam antibiotic concentration was fixed at the clinical breakpoint (imipenem 4 μg/ml or dicloxacillin 8 μg/ml) and the TarO inhibitors were titrated by 2 fold starting from the highest concentration of 200 μM with final DMSO concentration of 2% in the assay. 5×10^5 colony forming unit of MRSA COL in cation-adjusted Mueller Hinton broth (CAMHB) was then mixed and the assay plate was incubated for 20 hours at 37° C. without shaking. After 20 hours, the optical density at 600 nm (OD600) was read for all wells to determine relative growth of MRSA COL.

Row | Structure (SMILES) | IC95 (Staphylococcus aureus) | MITC95 TarO inhibitor + 4 μg/mL IPM; Bacteria: SA_MB5393 | MITC95 TarO inhibitor + 8 μg/mL DCX; Bacteria: SA_MB5393 | IC95
1 | CCN(C(=O)CCn1c2ccc(C3CC3)cc2nc1[C@H]1CC[C@H](CC)CC1)C1CCCCC1 [Example 26, N-cyclohexyl-3-[5-cyclopropyl-2-(trans-4-ethylcyclohexyl)-1H-benzimidazol-1-yl]-N-ethylpropanamide] | > 200 µM | 1.30 µM | 4.17 µM | 
2 | CCN(C(=O)CCn1c2cc(C#N)ccc2nc1[C@H]1CC[C@H](CC)CC1)C1CCCCC1 [Example 3, 3-[6-cyano-2-(trans-4-ethylcyclohexyl)-1H-benzimidazol-1-yl]-N-cyclohexyl-N-ethylpropanamide] | > 200 µM | 4.17 µM | 20.83 µM | 
3 | CCN(C(=O)CCn1c2cccc(N3CCOCC3)c2nc1[C@H]1CC[C@H](CC)CC1)C1CCCCC1 [Example 32, N-cyclohexyl-N-ethyl-3-[2-(trans-4-ethylcyclohexyl)-4-morpholin-4-yl-1H-benzimidazol-1-yl]propanamide] | > 200 µM | 20.83 µM | 20.83 µM | 
4 | CCN(C(=O)CCn1c(C2CCCCC2)nc2ccccc21)C1CCCCC1 [Example 35, N-cyclohexyl-3-(2-cyclohexyl-1H-benzimidazol-1-yl)-N-ethylpropanamide] | > 200 µM | 1.95 µM | 9.38 µM | 
5 | CCC1CCN(Cc2nc3ccccc3n2CCC(=O)N(CC)C2CCCCC2)CC1 [Example 62, N-cyclohexyl-N-ethyl-3-{2-[(4-ethylpiperidin-1-yl)methyl]-1H-benzimidazol-1-yl}propanamide] | > 200 µM | 6.25 µM | 25 µM | 
6 | CC1CCN(C(=O)CCn2c(C3CCCCC3)nc3ccccc32)CC1 [Example 63, 3-(2-cyclohexyl-1H-benzo[d]imidazol-1-yl)-1-(4-methylpiperidin-1-yl)propan-1-one] | > 200 µM | 18.75 µM |  | 
7 | CCN(C(=O)CCn1c(C2CCCN(c3nccc(OC)n3)C2)nc2ccccc21)C1CCCCC1 (stereo not shown) [Example 43, N-cyclohexyl-N-ethyl-3-(2-(1-(4-methoxypyrimidin-2-yl)piperidin-3-yl)-1H-benzo[d]imidazol-1-yl)propanamide] | 100 µM | 0.20 µM | 0.78 µM | 
8 | CCN(C(=O)CCn1c(N2CCC(C)CC2)nc2ccccc21)C1CCCCC1 [Example 57, N-cyclohexyl-N-ethyl-3-[2-(4-methylpiperidin-1-yl)-1H-benzimidazol-1-yl]propanamide] | > 200 µM | 1.30 µM | 26 µM | 
9 | CCN(C(=O)CCn1c2ccc(F)cc2nc1[C@H]1CC[C@H](CC)CC1)C1CCCCC1 [Example 10, N-cyclohexyl-N-ethyl-3-[2-(trans-4-ethylcyclohexyl)-5-fluoro-1H-benzimidazol-1-yl]propanamide] | > 200 µM | 0.004 µM | 0.03 µM | 
10 | CCN(C(=O)CCn1c2ccc(C#N)cc2nc1[C@H]1CC[C@H](CC)CC1)C1CCCCC1 [Example 22, 3-[5-cyano-2-(trans-4-ethylcyclohexyl)-1H-benzimidazol-1-yl]-N-cyclohexyl-N-ethylpropanamide] | > 200 µM | 0.36 µM | 0.88 µM | 
11 | CCN(C(=O)CCn1c2ncccc2nc1[C@H]1CC[C@H](CC)CC1)C1CCCCC1 [Example 19, N-cyclohexyl-N-ethyl-3-[2-(trans-4-ethylcyclohexyl)-3H-imidazo[4,5-b]pyridin-3-yl]propanamide] | > 200 µM | 1.95 µM | 28.13 µM | 
12 | CC(C)(C)OC(=O)NCC1CCC(c2nc3ccccc3n2CCC(=O)NC2C[C@H]3CC[C@]2(C)C3(C)C)CC1 (stereo partly drawn) [Example 40, tert-butyl ({4-[1-(3-oxo-3-{[(1R,4R)-1,7,7-trimethylbicyclo[2.2.1]hept-2-yl]amino}propyl)-1H-benzimidazol-2-yl]cyclohexyl}methyl) carbamate] | > 200 µM | 2.34 µM | 9.38 µM | 
13 | CCOc1ccc(-c2nc3ccccc3n2CCC(=O)N(CC)C2CCCCC2)cn1 [Example 38, N-cyclohexyl-3-[2-(6-ethoxypyridin-3-yl)-1H-benzimidazol-1-yl]-N-ethylpropanamide] | > 200 µM | 2.08 µM | 12.50 µM | 
14 | CCN(C(=O)CCn1c(N2CCC(C(F)F)CC2)nc2ccccc21)C1CCCCC1 [Example 56, N-cyclohexyl-3-{2-[4-(difluoromethyl)piperidin-1-yl]-1H-benzimidazol-1-yl}-N-ethylpropanamide] | > 200 µM | 1.17 µM | 4.69 µM | 
15 | CCN(C(=O)CCn1c(C2CCCN(c3ccccn3)C2)nc2ccccc21)C1CCCCC1 (stereo not shown) [Example 48, N-cyclohexyl-N-ethyl-3-[2-(1-pyridin-2-ylpiperidin-3-yl)-1H-benzimidazol-1-yl]propanamide] | > 200 µM | 1.56 µM | 50 µM | 
16 | CCN(C(=O)CCn1c(N2CCC(C(C)(C)C)CC2)nc2ccccc21)C1CCCCC1 [Example 58, 3-[2-(4-tert-butylpiperidin-1-yl)-1H-benzimidazol-1-yl]-N-cyclohexyl-N-ethylpropanamide] | > 200 µM | 0.02 µM | 0.13 µM | 
17 | CCN(C(=O)CCn1c2cccnc2nc1[C@H]1CC[C@H](CC)CC1)C1CCCCC1 [Example 2, N-cyclohexyl-N-ethyl-3-[2-(trans-4-ethylcyclohexyl)-1H-imidazo[4,5-b]pyridin-1-yl]propanamide] | > 200 µM | 1.88 µM | 18.75 µM | 
18 | CCN(C(=O)CCn1c2ccncc2nc1[C@H]1CC[C@H](CC)CC1)C1CCCCC1 [Example 17, N-cyclohexyl-N-ethyl-3-[2-(trans-4-ethylcyclohexyl)-1H-imidazo[4,5-c]pyridin-1-yl]propanamide] | > 200 µM | 0.98 µM | 6.25 µM | 
19 | CCOC(=O)N1CCCC(c2nc3cc(F)ccc3n2CCC(=O)N(CC)C2CCCCC2)C1 (stereo not shown) [Example 18, Ethyl 3-(1-{3-[cyclohexyl(ethyl)amino]-3-oxopropyl}-5-fluoro-1H-benzimidazol-2-yl)piperidine-1-carboxylate] |  | 1.09 µM | 23.75 µM | >200 µM
20 | CC(C)(C)OC(=O)N1CCC(c2nc3ccccc3n2CCC(=O)NC2C[C@H]3CC[C@]2(C)C3(C)C)C1 (stereo partly drawn) [Example 41, tert-butyl 3-[1-(3-oxo-3-{[(1R,4R)-1,7,7-trimethylbicyclo[2.2.1]hept-2-yl]amino}propyl)-1H-benzimidazol-2-yl]pyrrolidine-1-carboxylate] | > 200 µM | 5.47 µM | 37.50 µM | 
21 | CCN(C(=O)CCn1c(C2CCCN(C(=O)OC(C)(C)C)C2)nc2cc(F)ccc21)C1CCCCC1 (stereo not shown) [Example 15, tert-butyl 3-(1-{3-[cyclohexyl(ethyl)amino]-3-oxopropyl}-5-fluoro-1H-benzimidazol-2-yl)piperidine-1-carboxylate] |  | 0.52 µM | 4.17 µM | >200 µM
22 | CCN(C(=O)CCn1c2cc(C[C@H]3CCOC3)ccc2nc1[C@H]1CC[C@H](CC)CC1)C1CCCCC1 [Example 28, N-cyclohexyl-N-ethyl-3-{2-(trans-4-ethylcyclohexyl)-6-[(3S)-tetrahydrofuran-3-ylmethyl]-1H-benzimidazol-1-yl}propanamide] | > 200 µM | 1.30 µM | 4.17 µM | 
23 | CC1(C)[C@@H]2CC[C@@]1(C)[C@H](NC(=O)CCn1c3ccccc3nc1[C@H]1CC[C@@H](C(C)(C)C)CC1)C2 [Example 33, 3-[2-(cis-4-tert-butylcyclohexyl)-1H-benzimidazol-1-yl]-N-[(1R,2R,4R)-1,7,7-trimethylbicyclo[2.2.1]hept-2-yl]propanamide] | > 200 µM | 0.06 µM |  | 
24 | CCN(C(=O)CCn1c(N2CCC[C@H](NC(=O)OC(C)(C)C)C2)nc2ccccc21)C1CCCCC1 [Example 59, tert-butyl [(3S)-1-(1-{3-[cyclohexyl(ethyl)amino]-3-oxopropyl}-1H-benzimidazol-2-yl)piperidin-3-yl]carbamate] | > 200 µM | 50 µM | 150 µM | 
